From publication PMC9327644, “Optimized peptide extraction method for analysis of antimicrobial peptide Kn2-7/dKn2-7 stability in human serum by LC–MS” (Future Science OA, 2022)
Square brackets hold non-standard residues; d marks the D form. Peptide text beside a SMILES is read from it.

Test: Time-course stability in 25% human serum by LC-MS
Format: in vitro ADME
Details: 25% human serum in RPMI media (165 mM MOPS, pH 7.0), 50 μg/ml peptide, 37°C water bath, precipitation with 1% formic acid in ethanol, LC-MS/MS (MRM), internal standard AMP 1018, mean ± SD, n = 3
Protocol: After parameters were optimized to reduce peptide loss during sample processing, the extent of AMP degradation by proteases in human serum was determined via a time-course experiment. Kn2-7 or dKn2-7 (50 μg/ml final concentration) was mixed with RPMI media alone or RPMI containing 25% human serum and incubated at 37°C in a water bath for up to 24 h. At predetermined time points (t = 0, 0.5, 1, 2, 3, 4 and 24 h), a 200 μl aliquot of each sample was collected and mixed with 400 μl of 1% formic acid in ethanol. Samples were incubated on ice for 15 min and centrifuged at 18,000 g for 10 min. Supernatants were transferred to fresh 500 μl tubes and stored at -20°C.
Samples were diluted eight-times with 3% ACN and 0.1% formic acid in water and spiked with internal standard AMP 1018 [15, 16] at 1 μg/ml immediately before LC–MS analysis. A 10 μl aliquot of each sample was analyzed using an Agilent ZORBAX Eclipse XDB 80Å C18 column (2.1 × 50 mm, 5 μm, Agilent, CA, USA) and a Shimadzu LC-20AD system (Shimadzu Corporation, Kyoto, Japan) coupled with a SCIEX API 4000 triple quadrupole mass spectrometer (AB Sciex, MA, USA). […]
MS was conducted in multiple reaction monitoring and positive electrospray ionization mode. […] AMPs Kn2-7/dKn2-7 and 1018 were quantified with the most abundant multiple reaction monitoring transitions m/z 558.7/120.2 and 385.18/239.1, respectively. […]

Row | SMILES | peptide remaining at 24 h relative to the starting concentration (amount in 0 h sample)
1 | CC[C@H](C)[C@H](NC(=O)[C@H](CCCNC(=N)N)NC(=O)[C@H](CCCCN)NC(=O)[C@@H](NC(=O)[C@@H](N)Cc1ccccc1)[C@@H](C)CC)C(=O)N[C@@H](C)C(=O)N[C@@H](CCCNC(=N)N)C(=O)N[C@@H](CC(C)C)C(=O)N[C@@H](CC(C)C)C(=O)N[C@@H](CCCNC(=N)N)C(=O)N[C@@H](CCCCN)C(=O)N[C@H](C(=O)N[C@@H](Cc1ccccc1)C(=O)O)[C@@H](C)CC [Kn2-7] (H-FIKRIARLLRKIF-OH) | 1.0% ± 0.4%
2 | CC[C@@H](C)[C@@H](NC(=O)[C@H](N)Cc1ccccc1)C(=O)N[C@H](CCCCN)C(=O)N[C@H](CCCNC(=N)N)C(=O)N[C@@H](C(=O)N[C@H](C)C(=O)N[C@H](CCCNC(=N)N)C(=O)N[C@H](CC(C)C)C(=O)N[C@H](CC(C)C)C(=O)N[C@H](CCCNC(=N)N)C(=O)N[C@H](CCCCN)C(=O)N[C@@H](C(=O)N[C@H](Cc1ccccc1)C(=O)O)[C@H](C)CC)[C@H](C)CC [dKn2-7] (H-[dF][dI][dK][dR][dI][dA][dR][dL][dL][dR][dK][dI][dF]-OH) | 78.5% ± 2.7%
